Source: patent publication US9145434B2 (Boehringer Ingelheim International GmbH, priority 2012, dated 2015)

Assays:
Type in all cases: physicochemical
[1] = tendency to absorb moisture
[2] = mechanical stability of the crystals (grinding); conditions: allows grinding of the crystals
[3] = physical and chemical stability of the crystalline complex; conditions: under various environmental conditions and during the production of a medicament

## N#Cc1ccc([C@@H]2O[C@H](CO)[C@@H](O)[C@H](O)[C@H]2O)cc1Cc1ccc(C2CC2)cc1.O=C(O)[C@@H]1CCCN1 [crystalline complex]
[1]
  tendency to absorb moisture: does not show a high tendency to absorb moisture
[2]
  mechanical stability: high mechanical stability
[3]
  physical and chemical stability: high physical and chemical stability
